Test results published in patent publication US6569902B2, “Nitrone inhibition of cancer development” (Oklahoma Medical Research Foundation, priority 2000, dated 2003).
Like-named read-outs stand apart in the source and are kept apart here.

Experiments:
[1] = cited from earlier work
rats fed the CDAA diet = details: cited from earlier work; for size of neoplastic nodules: 12 weeks, CDAA only 1.92; for nodule number: CDAA only 190
[2] = system: male Wistar rats fed the CDAA diet; test: Example 1 main study: hepatocarcinogenesis (HCA, HCC, fibrosis) in rats fed the CDAA diet for 70 weeks; assay type: in vivo, rat
Source text: Animals, diets and chemical. The protocols were approved prior to the experiments by the Animal Experimentation committee at Nara Medical University according to the Guidelines on Animal Experiments in accordance with Japanese Government Animal Protection and Management Law Number 105 and Japanese Government Notification on Feeding and Safekeeping of Animals Number 6. Male Wistar rats, 6 weeks old, were purchased from JapanSLC, Inc., Hamamatsu, Shizuoka, Japan. Rats were housed 5 each to a plastic cage with white flake bedding (Kansai Animal Corp., City of Kyoto, Kyoto, Japan) in an air-conditioned room (25±3° C. temperature, 55 ±8% relative humidity, 10-12/h ventilation and 12-h dark/light cycle). Rats were used for the experimentation after a 1-week acclimation on a basal diet (CE-1, Clea Japan, Meguro, Tokyo, Japan) and allowed free access to food and tap water throughout the acclimation and experimental periods. Body weight, food consumption and water intake were monitored weekly. The CDAA diet and a control CSAA diet were obtained from Dyets Inc., Bethlehem, PA.
Main study. A total of 60 rats were equally divided into 6 groups. Group 1 received the CDAA diet for 70 weeks. […] The time-point of 26 weeks after the commencement, when treatments were changed in groups 3 and 4, was decided according to the results of the pilot study (see the Results and Discussion section below). All surviving rats were sacrificed 70 weeks after the commencement, and the livers were taken. Two serial 4-μm-thick, 10%-neutrally-buffered-folmalin-fixed 9 for 24 h), paraffin-embedded liver specimens were prepared and stained routine H&E and Masson's trichrome procedures. The H&E-stained liver specimens were histologically examined according to the aforementioned criteria (Maronpot et al. 1986), and the incidences of HCA and HCC were determined. Grade of fibrosis were evaluated by analyzing percent area occupied by collagen fiber in the Masson's trichrome-stained liver specimens using an IPAP image analyzing system (Sumika Technoservice, Corp., City of Osaka, Osaka, Japan).
Statistical analyses. Statistical analyses were carried out using an InStat software (GraphPad Software, Inc., San Diego, Cali.). Fisher's exact test was used to assess statistical significance of inter-group differences of the lesion incidences. Student-Newrnan-Keuls multiple comparison test was used to assess statistical significance of inter-group differences of means after one-way ANOVA to determine variations among group means, followed by Bartlett's test to determine homogeneity of variance.

[3] = system: livers of male Wistar rats fed the CDAA diet; test: Example 2: histological liver injury (fibrosis, fatty liver); assay type: in vivo, rat; details: high dose 0.090%, CDAA diet 16 weeks
Source text: (§1) Animal experiment. After acclimation, rats were divided equally into 22 groups consisting of 5 animals each. Animals in group 1 received the CDAA diet alone. […] Groups 5-7, 8-10, 11-13 and 14-16 received the CDAA diet containing the low, middle, and high doses of 4-OHPBN, 3-OHPBN, 2-OHPBN and 2-SPBN, respectively. Group 17 received the CSAA diet alone. […] All animals were sacrificed by exsanguination under light ether anesthesia 16 weeks after commencement, and the livers excised. Slices 5-mm-thick were taken from the left lateral, median and right lateral lobes of the livers, fixed in 10% neutrally-buffered formalin for 24 hours and then embedded in paraffin. Five serial 4-μm-thick sections were prepared from each fixed liver slice and used for histological and immunohistochemical assessment as described below. The remaining portions of the livers were immediately frozen under liquid nitrogen and stored at −80° C. until use.
(§2) Histological and immunohistochemical assessments. Histological assessment was performed using sections routinely stained with hematoxylin/eosin and Masson's trichrome procedures. Gradation of fibrosis was quantitatively evaluated in groups 1, 4, 7, 10, 13, 16 and 17 by calculating the percent area occupied by collagen fiber stained blue by Masson's trichrome method using an IPAP image analyzing system (Sumika Technoservice Corp., City of Osaka, Osaka, Japan). GST-P-positive lesions were visualized immunohistochemically. Lesions consisting of more than 6 cells were quantified using the IPAP system as described elsewhere (Kishida et al. 2000). The amount of apoptosis and the cellular proliferative activity were determined in groups 1, 4, 7, 10, 13, 16 and 17, using the double staining techniques by combination of the GST-P immunohistochemistry as above with the in situ terminal deoxynucleotidyl transferase-mediated dUTP-biotin nick end-labeling method (Gold et al. 1994) and the enhanced polymer one-step staining method for proliferating cell nuclear antigen (Tsutsumi et al. 1995), respectively. Numbers of apoptotic and proliferating hepatocytes among the 1000-5000 hepatocytes in GST-P-positive lesions and 5000 hepatocytes in surrounding tissue were counted under light microscopy to obtain percentages that are hereafter referred as apoptotic and proliferative indices, respectively.
(§3) Statistics. Inter-group differences in quantitative data for multiple groups were recognized to be significant, when p values smaller than 0.05 were obtained by the Dunnett multiple comparison test employed after one-way analysis of variance to determine the variation among the group means followed by the Bartlett's test to determine the homogeniety of variance.

[4] = system: GST-P-positive lesions in livers of male Wistar rats fed the CDAA diet; test: Example 2: numbers and sizes of GST-P-positive liver lesions, CDAA diet for 16 weeks; assay type: in vivo, rat; details: high dose 0.090% in CDAA diet
Method: Animals. A total of 110 male Wistar rats were obtained at 5 weeks of age from Charles River Japan, Inc., Atsugi, Kanagawa, Japan. Experimentation began after a 1-week acclimation on a basal diet (CE-2 diet, Clea Japan, Meguro, Tokyo, Japan). Rats were housed 5 each in plastic cages with white flake bedding (Kansai Animal Corp., City of Kyoto, Kyoto, Japan) in a standard atmosphere (temperature, 25±3° C.; relative humidity, 55±8%; ventilation, 10-15/hour; and a 12-hour dark/light cycle). Free access to food and tap water was allowed throughout the acclimation and experimental periods.
Diets and chemicals. The CDAA diet and its control, a choline-supplemented, L-amino acid-defined (CSAA) diet (Nakae et al. 1992; and Nakae et al. 1990) were obtained from Dyets, Inc., Bethlehem, Pa. […] 2-Sulfoxy-PBN (2-SPBN) was purchased from Aldrich Chemical Co. (Milwaukee, Wis.).
as §1, §2, §3

[5] = group 2: CDAA diet with PBN 0.065% in drinking water for 70 weeks, CDAA alone 57.1%
[6] = group 3: CDAA with PBN for first 26 weeks, then CDAA alone 44 weeks
[7] = group 4: CDAA alone 26 weeks, then CDAA with PBN for last 44 weeks
[8] = group 6: CSAA control diet with PBN 70 weeks (stated for groups 5 or 6)

CC(C)(C)[N+]([O-])=Cc1ccccc1 [PBN, phenyl N-tert-butyl nitrone]
half-life ([1]; in rats): about 132 minutes
tissue distribution ([1]; rat, in vivo): readily and rapidly distributed almost equally to all tissues
size of neoplastic nodules (rats fed the CDAA diet; CDAA plus PBN 6 mg/kg-day): 0.33 mm^3
size of neoplastic nodules (rats fed the CDAA diet; CDAA plus PBN 30 mg/kg-day): 0.17 mm^3
size of neoplastic nodules (rats fed the CDAA diet; CDAA plus PBN 60 mg/kg-day): 0.10 mm^3
nodule number (rats fed the CDAA diet; PBN 6 mg/kg-day): 170 per mm^3
nodule number (rats fed the CDAA diet; PBN 30 mg/kg-day): 149 per mm^3
nodule number (rats fed the CDAA diet; PBN 60 mg/kg-day): 142 per mm^3
reduction of the amount of PGE2 in the CD-livers (rats fed the CDAA diet; highest dose): about 50%
decrease of nodule size (rats fed the CDAA diet; highest level of PBN): 95%
8-OHdG content (marker of DNA oxidation) in the CD-livers (rats fed the CDAA diet; increasing concentrations of PBN): reduced
decrease of nodule size (rats fed the CDAA diet; lowest level of PBN (6 mg/kg)): 83%
decrease of nodule number (rats fed the CDAA diet; lowest level of PBN): 11%
effect on COX-II expression (rats fed the CDAA diet; mRNA or protein level): no effect
connective tissue proliferation (rats fed the CDAA diet; rat, in vivo): significantly reduced
carcinogenicity of PBN itself ([2]; 70-week study, PBN in drinking water): not carcinogenic itself
HCA incidence [2, 5]: 25.0%
HCC incidence [2, 5]: 25.0%
grade of fibrosis, percent of liver specimen occupied by fiber ([2]; group 2: PBN 70 weeks, group 1 (CDAA alone) 13.32%): 9.95%
HCA incidence [2, 6]: 28.6%
HCC incidence [2, 6]: 0%
grade of fibrosis, percent of liver specimen occupied by fiber ([2]; group 3: PBN first 26 weeks, group 1 13.32%): 8.71%
HCA incidence [2, 7]: 62.5%
HCC incidence [2, 7]: 0%
grade of fibrosis, percent of liver specimen occupied by fiber ([2]; group 4: PBN last 44 weeks, group 1 13.32%): 12.86%
grade of fibrosis ([2]; group 6: CSAA control diet with PBN 70 weeks (one value stated for groups 5 or 6)): 1.61%
HCA incidence [2, 8]: 0%
HCC incidence [2, 8]: 0%
grade of fibrosis versus group 1 [3]: significantly lower
number of GST-P-positive lesions, % of the group 1 value [4]: 52%
sizes of GST-P-positive lesions, % of the group 1 value [4]: 19%
